Experimental data as given in US20200069617A1, “USE OF N-ACETYLCYSTEINE AMIDE IN THE TREATMENT OF ACETAMINOPHEN OVERDOSE” (priority 2015, published 2020).

How the values were obtained:
[1] = test system: APAP-induced hepatotoxicity; experiment: Protective effects in APAP-induced hepatotoxicity (oxidative stress and organ injury markers); assay type: in vivo, C57BL/6 mice
Procedure: Studies were then performed to evaluate the protective effects of NACA in APAP-induced hepatotoxicity using male C57BL/6 mice that were intraperitoneally injected with 400 mg/kg of APAP after 15 hours of fasting. The therapeutic potentials of NAC and NACA were compared by administering NAC/NACA (106 mg/kg) after 1.5 hours of APAP administration and sacrificing the mice 4 hours after the APAP administration. The GSH/GSSG ratio, a crucial antioxidant parameter, and malondialdehyde (MDA) levels were measured in liver tissue.
Alanine aminotransferase (ALT) and glutamate dehydrogenase levels were also measured in serum (FIG. 3). These are markers of livery injury.

APAP overdose = experiment: Survival of mice after APAP overdose; assay type: in vivo, C57 BL/6 mice; details: FIG. 10
Procedure: Studies were then performed where C57 BL/6 mice received APAP overdose of 500 mg/kg. NACA or NAC was administered (106 mg/kg) 1.5 hours post APAP and at every 12 hours thereafter until 72 hours. The APAP group had 6 mice and the NAC and NACA groups contained 4. Mice treated with NACA/APAP survived for 150 hours, while mice treated with APAP or NAC/APAP had 60% and 30% survival respectively (FIG. 10).

| Structure (SMILES) | oxidative stress in a number of tissues ([1]; APAP administration) | liver injury (serum ALT and glutamate dehydrogenase levels) ([1]; APAP alone, FIG. 3) | blood urea nitrogen (BUN) ([1]; APAP alone, FIG. 9) | serum creatine kinase (CK) ([1]; APAP alone, FIG. 9) | survival (APAP overdose; APAP overdose of 500 mg/kg alone) [%] | survival (APAP overdose; APAP 500 mg/kg, 106 mg/kg 1.5 hours post APAP and every 12 hours until 72 hours) [%] |
| --- | --- | --- | --- | --- | --- | --- |
| CC(=O)Nc1ccc(O)cc1 [APAP, N-acetyl-p-aminophenol] | increases | causes liver injury | increases | increases | 60 |  |
| CC(=O)N[C@@H](CS)C(=O)O [NAC, N-acetylcysteine] |  |  |  |  |  | 30 |
